Results: publication PMC6941952, “A homogeneous bioluminescent immunoassay to probe cellular signaling pathway regulation” (Communications Biology, 2020)
Several values for one entry are separate records, joined by “and”; a condition that tells them apart may be missing. Identical values can stand only once. Like-named read-outs stand apart in the source and are kept apart here.

Target: T1, estrogen receptors (ER) (Homo sapiens, UniProt P03372)
T1 sequence (P03372 1-595): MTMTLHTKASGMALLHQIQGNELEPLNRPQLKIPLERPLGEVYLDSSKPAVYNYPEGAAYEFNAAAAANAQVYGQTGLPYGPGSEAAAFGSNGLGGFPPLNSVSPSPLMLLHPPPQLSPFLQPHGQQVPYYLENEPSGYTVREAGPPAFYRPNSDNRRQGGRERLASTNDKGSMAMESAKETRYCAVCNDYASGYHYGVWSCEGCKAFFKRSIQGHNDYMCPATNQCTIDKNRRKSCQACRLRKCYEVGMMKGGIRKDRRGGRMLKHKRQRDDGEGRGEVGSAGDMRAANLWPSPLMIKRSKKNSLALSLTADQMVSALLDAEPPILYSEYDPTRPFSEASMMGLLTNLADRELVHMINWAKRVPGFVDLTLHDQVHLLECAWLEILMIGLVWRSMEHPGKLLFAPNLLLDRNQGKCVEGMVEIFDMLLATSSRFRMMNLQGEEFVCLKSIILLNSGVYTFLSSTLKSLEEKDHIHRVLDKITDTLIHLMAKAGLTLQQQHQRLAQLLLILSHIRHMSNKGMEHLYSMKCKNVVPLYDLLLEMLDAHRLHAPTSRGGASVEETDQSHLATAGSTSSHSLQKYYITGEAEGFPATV
Conditions: 4 h; for Total ER protein (%) / protein (%) ER: replicate
Protocol: Prior to NanoBiT Cell-Based Immunoassay, 50,000 cells were seeded in 160 µl of complete growth media per well of a 96-well plate and incubated overnight. […] If necessary, the cell culture media were replaced with serum-free media after the cells were stably adherent on the plate and incubated overnight. To treat cells with activators or inhibitors, medium was changed to 30 µl of medium containing inhibitors. If activation of a specific pathway is needed, the cells were stimulated with 10 µl of medium containing activators. To lyse the cells, 10 µl of lysis buffer containing 0.1% digitonin diluted in 1X immunoassay buffer with protease and phosphatase inhibitors was added and the plates were mixed vigorously for 20 min. Then, 50 µl of an antibody mix containing two primary antibodies against the target protein and NanoBiT detecting antibodies (0.3 µl each per well), diluted in 1X immunoassay buffer was added to the lysates. The plates were incubated at 23 °C for 90 min, followed by the addition of 25 µl of Nano-Glo® reagent consisting of Nano-Glo® Luciferase Assay Substrate mixed with 1X immunoassay buffer. Luminescence was measured using a plate-reading luminometer.
All 96-well assay plates were read using a GloMax® 96 Microplate Luminometer from Promega. The instrument was set to 0.5 s integration time. In order to obtain net change of signal, the reagent background values (signal from the well containing all reagent except primary antibodies) were subtracted from the sample values. To plot and analyze the data, Microsoft Excel and GraphPad Prism® Software were used. IC50 values were determined by using a nonlinear regression fit to a sigmoidal dose response (variable slope).

[1] = Fulvestrant 0.0976562 nM, MCF-7, Fig 7c
[2] = Fulvestrant 0.195312 nM, MCF-7, Fig 7c
[3] = Fulvestrant 0.390625 nM, MCF-7, Fig 7c
[4] = Fulvestrant 0.78125 nM, MCF-7, Fig 7c
[5] = Fulvestrant 1.5625 nM, MCF-7, Fig 7c
[6] = Fulvestrant 3.125 nM, MCF-7, Fig 7c
[7] = Fulvestrant 6.25 nM, MCF-7, Fig 7c
[8] = Fulvestrant 25 nM, MCF-7, Fig 7c
[9] = Fulvestrant 50 nM, MCF-7, Fig 7c
[10] = Fulvestrant 100 nM, MCF-7, Fig 7c

SMILES: C[C@]12CC[C@@H]3c4ccc(O)cc4C[C@@H](CCCCCCCCC[S+]([O-])CCCC(F)(F)C(F)(F)F)[C@H]3[C@@H]1CC[C@@H]2O (some centres unmarked) [Fulvestrant]
- Average Total ER protein (%) (0.0976562 nM, MCF-7, Fig 7b): 100%
- Raw data ER (0.0976562 nM, MCF-7, Fig 7b): 1203000 and 1328000
- Subtract reagent background ER (0.0976562 nM, MCF-7, Fig 7b): 1167700 and 974100 and 1096600
- Total ER protein (%) (0.0976562 nM, MCF-7, Fig 7b): 102.1% and 102.0%
- Raw data ER (0.195312 nM, MCF-7, Fig 7b): 1310000 and 1183000 and 1306000
- Subtract reagent background ER (0.195312 nM, MCF-7, Fig 7b): 1076600 and 955300 and 1077400
- Total ER protein (%) (0.195312 nM, MCF-7, Fig 7b): 94.2% and 100.2%
- Average Total ER protein (%) (0.390625 nM, MCF-7, Fig 7b): 88%
- Raw data ER (0.390625 nM, MCF-7, Fig 7b): 1176000 and 1121000
- Subtract reagent background ER (0.390625 nM, MCF-7, Fig 7b): 945500 and 891700 and 1008700
- Total ER protein (%) (0.390625 nM, MCF-7, Fig 7b): 82.7% and 87.9% and 93.8%
- Average Total ER protein (%) (0.78125 nM, MCF-7, Fig 7b): 73%
- Raw data ER (0.78125 nM, MCF-7, Fig 7b): 1017000 and 962500 and 1057000
- Subtract reagent background ER (0.78125 nM, MCF-7, Fig 7b): 788000 and 733700 and 828700
- Total ER protein (%) (0.78125 nM, MCF-7, Fig 7b): 68.9% and 72.3% and 77.1%
- Average Total ER protein (%) (1.5625 nM, MCF-7, Fig 7b): 52%
- Raw data ER (1.5625 nM, MCF-7, Fig 7b): 787000 and 772400 and 799700
- Subtract reagent background ER (1.5625 nM, MCF-7, Fig 7b): 564400 and 548300 and 571400
- Total ER protein (%) (1.5625 nM, MCF-7, Fig 7b): 49.4% and 54.1% and 53.2%
- Average Total ER protein (%) (3.125 nM, MCF-7, Fig 7b): 36%
- Raw data ER (3.125 nM, MCF-7, Fig 7b): 594200 and 628300
- Subtract reagent background ER (3.125 nM, MCF-7, Fig 7b): 405200 and 370300 and 399100
- Total ER protein (%) (3.125 nM, MCF-7, Fig 7b): 35.4% and 36.5% and 37.1%
- Average Total ER protein (%) (6.25 nM, MCF-7, Fig 7b): 29%
- Raw data ER (6.25 nM, MCF-7, Fig 7b): 540300 and 521900
- Subtract reagent background ER (6.25 nM, MCF-7, Fig 7b): 294500 and 313200
- Total ER protein (%) (6.25 nM, MCF-7, Fig 7b): 27.5% and 29.0% and 29.1%
- Average Total ER protein (%) (25 nM, MCF-7, Fig 7b): 23%
- Raw data ER (25 nM, MCF-7, Fig 7b): 474000 and 455500 and 481300
- Subtract reagent background ER (25 nM, MCF-7, Fig 7b): 248500 and 229500 and 255100
- Total ER protein (%) (25 nM, MCF-7, Fig 7b): 21.7% and 22.6% and 23.7%
- Average Total ER protein (%) (50 nM, MCF-7, Fig 7b): 22%
- Raw data ER (50 nM, MCF-7, Fig 7b): 467500 and 453000 and 467700
- Subtract reagent background ER (50 nM, MCF-7, Fig 7b): 244000 and 227100 and 240600
- Total ER protein (%) (50 nM, MCF-7, Fig 7b): 21.3% and 22.4%
- Average Total ER protein (%) (100 nM, MCF-7, Fig 7b): 21%
- Raw data ER (100 nM, MCF-7, Fig 7b): 455900 and 441400 and 453000
- Subtract reagent background ER (100 nM, MCF-7, Fig 7b): 231900 and 220300 and 227600
- Total ER protein (%) (100 nM, MCF-7, Fig 7b): 20.3% and 21.7% and 21.2%
- Average ER protein (%) [1]: 104.6%
- Raw data ER [1]: 1438000 and 1444000 and 1315000
- Subtract reagent background ER [1]: 1210700 and 1216700 and 1087700
- protein (%) ER [1]: 106.1% and 108.4% and 99.4%
- Average ER protein (%) [2]: 107.5%
- Raw data ER [2]: 1431000 and 1445000 and 1414000
- Subtract reagent background ER [2]: 1204100 and 1218100 and 1187100
- protein (%) ER [2]: 105.5% and 108.5% and 108.4%
- Average ER protein (%) [3]: 98.2%
- Raw data ER [3]: 1290000 and 1346000 and 1340000
- Subtract reagent background ER [3]: 1063550 and 1119550 and 1113550
- protein (%) ER [3]: 93.2% and 99.7% and 101.7%
- Average ER protein (%) [4]: 82.3%
- Raw data ER [4]: 1111000 and 1176000
- Subtract reagent background ER [4]: 884650 and 927650 and 949650
- protein (%) ER [4]: 77.5% and 82.6% and 86.7%
- Average ER protein (%) [5]: 59.5%
- Raw data ER [5]: 890700 and 898000 and 891300
- Subtract reagent background ER [5]: 663400 and 670700 and 664000
- protein (%) ER [5]: 58.2% and 59.7% and 60.7%
- Average ER protein (%) [6]: 41.1%
- Raw data ER [6]: 677900 and 688400 and 691000
- Subtract reagent background ER [6]: 452050 and 462550 and 465150
- protein (%) ER [6]: 39.6% and 41.2% and 42.5%
- Average ER protein (%) [7]: 31.0%
- Raw data ER [7]: 573300 and 576800 and 566100
- Subtract reagent background ER [7]: 351400 and 340700
- protein (%) ER [7]: 30.5% and 31.3% and 31.1%
- Average ER protein (%) [8]: 24.2%
- Raw data ER [8]: 499600 and 500900 and 484100
- Subtract reagent background ER [8]: 275200 and 276500 and 259700
- protein (%) ER [8]: 24.1% and 24.6% and 23.7%
- Average ER protein (%) [9]: 22.7%
- Raw data ER [9]: 476500 and 482700 and 473700
- Subtract reagent background ER [9]: 253450 and 259650 and 250650
- protein (%) ER [9]: 22.2% and 23.1% and 22.9%
- Average ER protein (%) [10]: 20.4%
- Raw data ER [10]: 453900 and 451400 and 438800
- Subtract reagent background ER [10]: 234150 and 231650 and 219050
- protein (%) ER [10]: 20.5% and 20.6% and 20.0%
- lowering of total ER protein level (MCF-7 cells, titration): over 80%
